In PubChem BioAssay AID1919017 (Molecular Pharmacology Branch, DTP, NCI, 2023):
pIC50: −log10 of the molar value. Values joined by “and” are separate entries in the source; they are usually repeats but may differ in a detail not shown here. Equal entries are not always repeated.

Test system: SW1271 complex spheroids with HUVEC/MSC, growth, % test/control
Assay: Anticancer human tumor SW1271 cell line growth inhibition [AhR];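 note: spheroids exposed to agents for 7 days before readout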
Settings: for viability, T/C: stronger effect = lower value
Outline: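 Agents were dosed in half-log steps down from roughly clinical Cmax, or from 10 microM where Cmax was unknown, alone and with AhR antagonists. Read-out: percent test/control growth of tumor spheroids containing HUVEC and MSC stromal cells.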

[1] = curve of first compound, second compound 0.1 µM
[2] = curve of first compound, second compound 0.316 µM
[3] = curve of first compound, second compound 1 µM
[4] = curve of first compound, second compound 3.16 µM
[5] = curve of first compound, second compound 10 µM
[6] = second compound 0.1 µM, first compound 0.00949 µM
[7] = second compound 0.1 µM, first compound 0.03 µM
[8] = second compound 0.1 µM, first compound 0.0949 µM
[9] = second compound 0.1 µM, first compound 0.3 µM
[10] = second compound 0.316 µM, first compound 0.00949 µM
[11] = second compound 0.316 µM, first compound 0.03 µM
[12] = second compound 0.316 µM, first compound 0.0949 µM
[13] = second compound 0.316 µM, first compound 0.3 µM
[14] = second compound 1 µM, first compound 0.00949 µM
[15] = second compound 1 µM, first compound 0.03 µM
[16] = second compound 1 µM, first compound 0.0949 µM
[17] = second compound 1 µM, first compound 0.3 µM
[18] = second compound 3.16 µM, first compound 0.00949 µM
[19] = second compound 3.16 µM, first compound 0.03 µM
[20] = second compound 3.16 µM, first compound 0.0949 µM
[21] = second compound 3.16 µM, first compound 0.3 µM
[22] = second compound 10 µM, first compound 0.00949 µM
[23] = second compound 10 µM, first compound 0.03 µM
[24] = second compound 10 µM, first compound 0.0949 µM
[25] = second compound 10 µM, first compound 0.3 µM

Row | Compound | pIC50 [1] | pIC50 [2] | pIC50 [3] | pIC50 [4] | pIC50 [5] | viability, T/C [6] [%] | viability, T/C [7] [%] | viability, T/C [8] [%] | viability, T/C [9] [%] | viability, T/C [10] [%] | viability, T/C [11] [%] | viability, T/C [12] [%] | viability, T/C [13] [%] | viability, T/C [14] [%] | viability, T/C [15] [%] | viability, T/C [16] [%] | viability, T/C [17] [%] | viability, T/C [18] [%] | viability, T/C [19] [%] | viability, T/C [20] [%] | other results
1 | CCc1c2c(nc3ccc(O)cc13)-c1cc3c(c(=O)n1C2)COC(=O)[C@]3(O)CC + CC(CO)NC(=O)c1cc(-c2ccc(Cl)cc2)nn(-c2cnn(C)c2)c1=O | 7.52 | < 6.52 | 6.86 | < 6.52 | < 6.52 | 66 | 51 | 48.2 | 47.3 | 67.9 | 63.2 | 56.3 | 58.8 | 56.6 | 67 | 54 | 42 | 58 | 55.1 | 49.1 | viability, T/C (second compound 0.1 µM, first compound 0.000949 µM): 83%; viability, T/C (second compound 0.1 µM, first compound 0.003 µM): 83.5%; viability, T/C (second compound 0.316 µM, first compound 0.000949 µM): 72.8%; viability, T/C (second compound 0.316 µM, first compound 0.003 µM): 79%; viability, T/C (second compound 1 µM, first compound 0.000949 µM): 73.4%; viability, T/C (second compound 1 µM, first compound 0.003 µM): 85.9%; viability, T/C (second compound 3.16 µM, first compound 0.000949 µM): 74.1%; viability, T/C (second compound 3.16 µM, first compound 0.003 µM): 73.8%; viability, T/C [21]: 50.5%; viability, T/C (second compound 10 µM, first compound 0.000949 µM): 71.6%; viability, T/C (second compound 10 µM, first compound 0.003 µM): 65.8%; viability, T/C [22]: 55.5%; viability, T/C [23]: 58.3%; viability, T/C [24]: 45.7%; viability, T/C [25]: 54.7%
2 | O=C(C=Cn1cnc(-c2cc(C(F)(F)F)cc(C(F)(F)F)c2)n1)NNc1cnccn1 + Cc1ccccc1N=Nc1ccc(NC(=O)c2ccnn2C)c(C)c1 | 5.69 | 5.86 | 5.61 | < 5.52 | < 5.52 | 87 | 111 | 86.1 | 64.5 | 78.9 | 86.2 | 84 | 64.8 | 111 | 85.7 | 79 | 79.2 | 109 | 95.6 | 99.7 | viability, T/C (second compound 0.1 µM, first compound 0.949 µM): 54.1%; viability, T/C (second compound 0.1 µM, first compound 3 µM): 46.7%; viability, T/C (second compound 0.316 µM, first compound 0.949 µM): 56%; viability, T/C (second compound 0.316 µM, first compound 3 µM): 42.8%; viability, T/C (second compound 1 µM, first compound 0.949 µM): 59.4%; viability, T/C (second compound 1 µM, first compound 3 µM): 45.8%; viability, T/C [21]: 61.4%; viability, T/C (second compound 3.16 µM, first compound 0.949 µM): 64.9%; viability, T/C (second compound 3.16 µM, first compound 3 µM): 49%; viability, T/C [22]: 94.8%; viability, T/C [23]: 93%; viability, T/C [24]: 107%; viability, T/C [25]: 71.2%; viability, T/C (second compound 10 µM, first compound 0.949 µM): 61.4%; viability, T/C (second compound 10 µM, first compound 3 µM): 45.7%
3 | CCN(c1cc(-c2ccc(CN3CCOCC3)cc2)cc(C(=O)NCc2c(C)cc(C)[nH]c2=O)c1C)C1CCOCC1 | – | – | – | – | – | – | – | – | – | – | – | – | – | – | – | – | – | – | – | – | viability, T/C (compound 0.00949 µM): 104% and 90.3% and 94.7%; viability, T/C (compound 0.03 µM): 96.7% and 99.1% and 104%; viability, T/C (compound 0.0949 µM): 86.3% and 110% and 120%; viability, T/C (compound 0.3 µM): 93.2% and 124% and 111%; viability, T/C (compound 0.949 µM): 90.6% and 106% and 125%; viability, T/C (compound 3 µM): 102% and 115% and 107%; pIC50 (curve of compound): < 5.52
